According to ChEMBL document CHEMBL4002591 (J Med Chem, 2017):

Tests used:
[1] = target: Poly [ADP-ribose] polymerase 1 (Homo sapiens, UniProt P09874); test: Inhibition of full length recombinant human N-terminal GST-tagged PARP1 expressed in Baculovirus infected Sf9 cells using TACS-Sapphire as substrate measured after 1 hr by colorimetric assay
[2] = target: T1, Poly [ADP-ribose] polymerase tankyrase-1 (Homo sapiens, UniProt O95271); test: Inhibition of recombinant human N-terminal GST-tagged TNKS1 (1001 to 1327 residues) expressed in baculovirus infected sf9 cells using TACS-Sapphire as substrate measured after 30 mins by colorimetric assay
T1 sequence (O95271 whole entry): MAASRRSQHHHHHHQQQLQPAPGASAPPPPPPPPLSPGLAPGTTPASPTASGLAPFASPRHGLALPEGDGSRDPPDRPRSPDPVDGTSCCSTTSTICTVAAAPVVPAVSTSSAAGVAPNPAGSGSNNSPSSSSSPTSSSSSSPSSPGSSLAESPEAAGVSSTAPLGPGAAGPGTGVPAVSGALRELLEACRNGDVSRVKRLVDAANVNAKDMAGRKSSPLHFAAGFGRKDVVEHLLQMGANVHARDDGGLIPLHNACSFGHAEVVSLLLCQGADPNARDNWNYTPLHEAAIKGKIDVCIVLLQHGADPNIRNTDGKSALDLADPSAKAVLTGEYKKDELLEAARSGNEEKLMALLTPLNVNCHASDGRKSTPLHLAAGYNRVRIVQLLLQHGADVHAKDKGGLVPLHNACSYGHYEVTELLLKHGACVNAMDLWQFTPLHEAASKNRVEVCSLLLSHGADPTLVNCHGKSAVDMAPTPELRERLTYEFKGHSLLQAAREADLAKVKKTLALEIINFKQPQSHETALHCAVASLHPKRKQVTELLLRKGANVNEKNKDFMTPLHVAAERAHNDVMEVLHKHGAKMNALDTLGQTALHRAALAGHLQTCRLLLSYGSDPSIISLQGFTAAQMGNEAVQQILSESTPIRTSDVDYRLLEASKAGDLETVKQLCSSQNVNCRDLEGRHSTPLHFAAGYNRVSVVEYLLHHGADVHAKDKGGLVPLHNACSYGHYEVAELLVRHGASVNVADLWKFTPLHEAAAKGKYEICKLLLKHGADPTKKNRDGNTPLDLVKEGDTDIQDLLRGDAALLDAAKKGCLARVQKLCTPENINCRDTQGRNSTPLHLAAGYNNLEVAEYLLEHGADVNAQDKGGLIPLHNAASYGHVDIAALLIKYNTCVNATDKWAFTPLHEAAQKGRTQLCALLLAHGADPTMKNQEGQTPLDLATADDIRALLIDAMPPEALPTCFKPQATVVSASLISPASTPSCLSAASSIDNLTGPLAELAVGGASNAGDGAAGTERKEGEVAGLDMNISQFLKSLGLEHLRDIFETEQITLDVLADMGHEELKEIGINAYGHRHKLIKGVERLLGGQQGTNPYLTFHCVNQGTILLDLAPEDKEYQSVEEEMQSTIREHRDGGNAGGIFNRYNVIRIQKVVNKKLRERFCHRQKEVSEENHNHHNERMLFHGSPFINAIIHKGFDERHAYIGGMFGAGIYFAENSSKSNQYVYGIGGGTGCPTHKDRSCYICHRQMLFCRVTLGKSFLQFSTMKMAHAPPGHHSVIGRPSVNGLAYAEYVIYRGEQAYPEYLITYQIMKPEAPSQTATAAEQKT

[3] = target: Poly [ADP-ribose] polymerase 2 (Homo sapiens, UniProt Q9UGN5); test: Inhibition of recombinant human N-terminal GST-tagged PARP2 (2 to 583 residues) expressed in baculovirus infected Sf9 cells measured after 1 hr by chemiluminescence assay
Chain of Poly [ADP-ribose] polymerase 2 (Q9UGN5 whole entry, the tested form may be a part): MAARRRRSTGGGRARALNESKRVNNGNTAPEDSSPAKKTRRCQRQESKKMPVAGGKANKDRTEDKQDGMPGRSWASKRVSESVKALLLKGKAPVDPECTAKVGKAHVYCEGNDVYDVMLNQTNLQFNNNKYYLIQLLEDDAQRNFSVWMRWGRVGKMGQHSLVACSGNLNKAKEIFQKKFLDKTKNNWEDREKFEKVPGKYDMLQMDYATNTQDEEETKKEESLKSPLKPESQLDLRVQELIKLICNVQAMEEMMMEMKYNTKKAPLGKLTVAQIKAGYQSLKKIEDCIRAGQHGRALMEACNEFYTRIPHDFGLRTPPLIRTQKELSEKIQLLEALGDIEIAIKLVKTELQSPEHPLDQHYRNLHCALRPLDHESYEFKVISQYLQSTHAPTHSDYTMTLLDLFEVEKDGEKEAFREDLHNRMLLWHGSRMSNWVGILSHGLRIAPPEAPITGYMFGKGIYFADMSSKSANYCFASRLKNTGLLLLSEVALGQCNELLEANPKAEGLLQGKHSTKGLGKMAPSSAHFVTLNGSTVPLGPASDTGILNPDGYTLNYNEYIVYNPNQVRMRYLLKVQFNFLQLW

[4] = target: T2, Poly [ADP-ribose] polymerase tankyrase-2 (Homo sapiens, UniProt Q9H2K2); test: Inhibition of recombinant human N-terminal His-GST-tagged TNKS2 (849 to 1166 residues) expressed in baculovirus infected Sf9 cells using biotinylated NAD+ as substrate measured after 2 hrs
T2 sequence (Q9H2K2 whole entry): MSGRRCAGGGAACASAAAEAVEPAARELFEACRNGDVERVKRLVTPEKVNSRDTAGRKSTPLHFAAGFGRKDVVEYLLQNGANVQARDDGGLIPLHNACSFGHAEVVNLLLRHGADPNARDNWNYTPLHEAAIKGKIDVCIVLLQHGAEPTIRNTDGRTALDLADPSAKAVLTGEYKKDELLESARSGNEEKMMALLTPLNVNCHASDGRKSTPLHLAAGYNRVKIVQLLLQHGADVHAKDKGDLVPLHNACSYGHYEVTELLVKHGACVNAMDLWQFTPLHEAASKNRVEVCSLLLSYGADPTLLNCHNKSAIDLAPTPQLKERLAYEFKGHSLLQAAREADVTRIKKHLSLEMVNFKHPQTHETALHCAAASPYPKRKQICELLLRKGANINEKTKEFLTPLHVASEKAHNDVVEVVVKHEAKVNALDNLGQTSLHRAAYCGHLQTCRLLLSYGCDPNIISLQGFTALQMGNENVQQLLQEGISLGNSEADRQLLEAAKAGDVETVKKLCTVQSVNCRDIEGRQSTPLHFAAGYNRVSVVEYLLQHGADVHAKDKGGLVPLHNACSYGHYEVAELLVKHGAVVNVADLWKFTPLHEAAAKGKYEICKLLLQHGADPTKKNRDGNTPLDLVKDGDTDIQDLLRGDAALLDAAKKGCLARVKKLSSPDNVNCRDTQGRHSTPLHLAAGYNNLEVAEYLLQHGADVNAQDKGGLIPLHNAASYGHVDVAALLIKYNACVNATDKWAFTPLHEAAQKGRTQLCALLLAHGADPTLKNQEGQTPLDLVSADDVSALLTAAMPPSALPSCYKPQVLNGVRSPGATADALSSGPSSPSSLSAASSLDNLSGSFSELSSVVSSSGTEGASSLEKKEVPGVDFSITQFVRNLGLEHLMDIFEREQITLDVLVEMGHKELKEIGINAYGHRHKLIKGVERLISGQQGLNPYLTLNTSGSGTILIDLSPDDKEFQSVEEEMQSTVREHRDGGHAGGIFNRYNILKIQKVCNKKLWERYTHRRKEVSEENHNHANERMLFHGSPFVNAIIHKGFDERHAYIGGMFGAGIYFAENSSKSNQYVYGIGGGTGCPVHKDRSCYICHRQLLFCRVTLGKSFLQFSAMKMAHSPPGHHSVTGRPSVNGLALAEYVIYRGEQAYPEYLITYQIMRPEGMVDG

Chain of Poly [ADP-ribose] polymerase 1 (P09874 whole entry, the tested form may be a part): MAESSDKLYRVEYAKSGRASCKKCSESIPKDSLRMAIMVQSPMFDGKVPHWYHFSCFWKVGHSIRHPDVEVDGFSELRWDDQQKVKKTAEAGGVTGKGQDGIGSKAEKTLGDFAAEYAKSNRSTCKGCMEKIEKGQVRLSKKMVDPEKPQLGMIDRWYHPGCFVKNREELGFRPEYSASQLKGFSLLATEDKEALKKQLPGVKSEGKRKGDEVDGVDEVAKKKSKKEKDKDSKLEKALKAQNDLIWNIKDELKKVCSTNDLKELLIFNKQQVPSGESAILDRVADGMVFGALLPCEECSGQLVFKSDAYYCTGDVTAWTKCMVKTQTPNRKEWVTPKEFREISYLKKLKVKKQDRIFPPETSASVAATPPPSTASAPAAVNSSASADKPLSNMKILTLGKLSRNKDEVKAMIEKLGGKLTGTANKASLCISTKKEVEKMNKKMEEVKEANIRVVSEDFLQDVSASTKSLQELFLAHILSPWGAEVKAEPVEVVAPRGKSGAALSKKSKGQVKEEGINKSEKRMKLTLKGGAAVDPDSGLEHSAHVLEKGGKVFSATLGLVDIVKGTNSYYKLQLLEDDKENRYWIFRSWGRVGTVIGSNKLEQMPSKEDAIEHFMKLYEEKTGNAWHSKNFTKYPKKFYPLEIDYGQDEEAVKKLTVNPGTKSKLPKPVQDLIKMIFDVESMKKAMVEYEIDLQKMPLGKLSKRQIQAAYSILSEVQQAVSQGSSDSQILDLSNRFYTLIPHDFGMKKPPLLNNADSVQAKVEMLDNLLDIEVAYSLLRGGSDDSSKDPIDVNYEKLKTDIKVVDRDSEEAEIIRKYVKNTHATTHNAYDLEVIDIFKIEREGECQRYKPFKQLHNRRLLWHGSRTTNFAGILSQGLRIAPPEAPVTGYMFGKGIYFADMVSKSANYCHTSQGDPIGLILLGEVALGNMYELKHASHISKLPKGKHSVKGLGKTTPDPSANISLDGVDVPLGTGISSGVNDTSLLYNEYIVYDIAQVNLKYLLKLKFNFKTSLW

Row | IC50 ([1]; read-out: IC50) [µM] | IC50 [2] [µM] | IC50 [3] [nM] | IC50 [4] [µM] | IC50 ([1]; read-out: pIC50 (converted)) [µM] | Compound
1 | > 100 | > 100 |  |  |  | Nc1ccc(C(=O)Nc2cccc3cccnc23)cc1
2 | 6.7 | > 100 | 125 | > 100 |  | O=C(O)CCc1nc(O)c2ccccc2n1
3 | 1 | > 100 | 145 | > 100 | 6.61 | Cc1cccc2c(=O)[nH]c(CCC(=O)O)nc12
4 | > 100 | 0.343 | > 100000 |  |  | O=C(Nc1cccc2cccnc12)c1ccc(N2C(=O)[C@@H]3[C@@H]4CC[C@@H](C4)[C@@H]3C2=O)cc1
